From PMC7854658, “Structural basis for ligand recognition of the neuropeptide Y Y2 receptor” (Nature Communications, 2021)
Residue numbers refer to the chain shown, from its start. Values joined by “and” are separate entries in the source; they are usually repeats but may differ in a detail not shown here. Identical values can stand only once.

Tests used:
Test in all cases: NPY-induced IP accumulation (IP-One), mutant
Assay type in all cases: cell-based
Y2R mutant V126^3.28A = molecular target: T1, Y2R mutant V126^3.28A (Homo sapiens, UniProt P49146, V126A)
T1 construct: expressed in transfected cells; host or cells: HEK293
T1 sequence (P49146 1-381 V126A): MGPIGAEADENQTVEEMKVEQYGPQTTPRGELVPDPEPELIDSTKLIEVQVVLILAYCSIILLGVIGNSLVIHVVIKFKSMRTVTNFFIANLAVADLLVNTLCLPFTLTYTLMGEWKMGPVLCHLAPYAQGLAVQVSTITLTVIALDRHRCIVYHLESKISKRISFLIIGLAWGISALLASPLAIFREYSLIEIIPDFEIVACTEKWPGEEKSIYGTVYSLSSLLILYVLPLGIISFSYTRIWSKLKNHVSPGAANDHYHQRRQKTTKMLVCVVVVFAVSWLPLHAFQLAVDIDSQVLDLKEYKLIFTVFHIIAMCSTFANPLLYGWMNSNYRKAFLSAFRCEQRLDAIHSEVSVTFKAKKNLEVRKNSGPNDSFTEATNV
Procedure: (§1) The plasmid hY2R_eYFP_pVitro2 encoding the WT Y2R and a fluorophore for investigating the receptor localization was used as template for the generation of receptor point mutations as previously described. Mutagenesis PCR was performed using the Phusion High-Fidelity Polymerase (Thermo Fisher Scientific, Waltham, MA, USA). […] The preparations of the plasmid DNA were performed using the Wizard plus Mini or Midi DNA purification kit (Promega, Madison, WI, USA).
(§2) To determine the contribution of residues to antagonist binding, IP-One accumulation assays (Cisbio, Codolet, France) were performed. HEK293 cells were seeded into six-well plates and transiently cotransfected with 3200 ng of receptor plasmid DNA and 800 ng of the chimeric G protein (Gα∆6qi4myr) to redirect the Gαi signaling pathway to the Gαq phospholipase C pathway. Transient transfection was carried out using Metafectene as transfection reagent according to the manufacturer’s protocol (Biontex, Munich, Germany) over night. The cells were then reseeded into white 384-well microplates (Greiner Bio-One, Kremsmünster, Austria) at a density of 15,000 cells per well and grown for additional 24 h.
(§3) All dilutions were performed in HBSS containing 20 mM LiCl (stimulation buffer) and DMSO with a final concentration of 0.01%.
(§4) To determine the amount of cellular IPs, the FRET acceptor (IP1-d2) and the FRET donor (anti-IP1-Cryptate) were reconstituted and diluted in lysis and detection buffer (1:20) as described in the manufacturer’s protocol. Three microliters of both solutions were added, and the cells were incubated on a tumbler for 60 min.

Y2R mutant S220^5.39A = molecular target: T2, Y2R mutant S220^5.39A (Homo sapiens, UniProt P49146, S220A)
T2 construct: expressed in transfected cells; host or cells: HEK293
T2 sequence (P49146 1-381 S220A): T1 sequence (P49146 1-381 V126A) with A126V, S220A
Procedure: as §1, §2, §3, §4

Y2R mutant Y228^5.47A = molecular target: T3, Y2R mutant Y228^5.47A (Homo sapiens, UniProt P49146, Y228A); details: 1 μM antagonist, source data Fig. 3
T3 construct: expressed in transfected cells; host or cells: HEK293
Procedure: as §1, §2, §3, §4

Y2R mutant F307^7.35A = molecular target: T4, Y2R mutant F307^7.35A (Homo sapiens, UniProt P49146, F307A)
T4 construct: expressed in transfected cells; host or cells: HEK293
T4 sequence (P49146 1-381 F307A): T1 sequence (P49146 1-381 V126A) with A126V, F307A
Procedure: as §1, §2, §3, §4

Y2R mutant L183^4.60A = molecular target: T5, Y2R mutant L183^4.60A (Homo sapiens, UniProt P49146, L183A); details: 1 μM antagonist, source data Fig. 3
T5 construct: expressed in transfected cells; host or cells: HEK293
Procedure: as §1, §2, §3, §4

Y2R mutant F307^7.35E = molecular target: T6, Y2R mutant F307^7.35E (Homo sapiens, UniProt P49146, F307E); details: 1 μM antagonist, source data Fig. 3
T6 construct: expressed in transfected cells; host or cells: HEK293
Procedure: as §1, §2, §3, §4

Y2R mutant W281^6.48T = molecular target: T7, Y2R mutant W281^6.48T (Homo sapiens, UniProt P49146, W281T)
T7 construct: expressed in transfected cells; host or cells: HEK293
T7 sequence (P49146 1-381 W281T): T1 sequence (P49146 1-381 V126A) with A126V, W281T
Procedure: as §1, §2, §3, §4

[1] = 1 μM antagonist, source data Fig. 3
[2] = EC50(NPY + 1 μM antagonist)/EC50(NPY)
[3] = EC50 ratio (WT)/EC50 ratio (mutant)

T6 sequence (P49146 whole entry F307E): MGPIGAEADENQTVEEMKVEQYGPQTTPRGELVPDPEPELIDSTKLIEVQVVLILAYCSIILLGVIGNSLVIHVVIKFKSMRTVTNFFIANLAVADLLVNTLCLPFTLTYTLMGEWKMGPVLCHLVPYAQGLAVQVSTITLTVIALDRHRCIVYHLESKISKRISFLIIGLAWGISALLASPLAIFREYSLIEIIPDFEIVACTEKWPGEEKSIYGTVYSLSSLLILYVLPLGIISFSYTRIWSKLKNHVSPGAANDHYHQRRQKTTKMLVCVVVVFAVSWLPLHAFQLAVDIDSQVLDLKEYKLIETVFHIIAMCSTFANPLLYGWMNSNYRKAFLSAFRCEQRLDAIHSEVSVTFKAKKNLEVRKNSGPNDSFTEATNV
T5 sequence (P49146 whole entry L183A): as the sequence (P49146 whole entry F307E) above, with L183A, E307F counted along it
T3 sequence (P49146 whole entry Y228A): as the sequence (P49146 whole entry F307E) above, with Y228A, E307F counted along it

N=C(N)NCCC[C@H](NC(=O)CC1(CC(=O)N2CCN(C3c4ccccc4NC(=O)c4ccccc43)CC2)CCCC1)C(=O)NCCn1c(=O)n(-c2ccccc2)n(-c2ccccc2)c1=O (stereo partly shown) [BIIE0246]
Average EC50 ratio (Y2R mutant V126^3.28A; [1]): 302.6
EC50 ratio (individual experiments) (Y2R mutant V126^3.28A; [1]): 285.2 and 320.0
EC50 ratio (Y2R mutant V126^3.28A; [2]): 285 and 320
Ratio change (fold) (Y2R mutant V126^3.28A; [3]): 0.6 fold and 0.5 fold
Average EC50 ratio (Y2R mutant S220^5.39A; [1]): 502.4
EC50 ratio (individual experiments) (Y2R mutant S220^5.39A; [1]): 515.1 and 489.7
EC50 ratio (Y2R mutant S220^5.39A; [2]): 515 and 490
Ratio change (fold) (Y2R mutant S220^5.39A; [3]): 0.3 fold
Average EC50 ratio (Y2R mutant Y228^5.47A): 18.8
EC50 ratio (individual experiments) (Y2R mutant Y228^5.47A): 10.5 and 27.0
Average EC50 ratio (Y2R mutant F307^7.35A; [1]): 89.4
EC50 ratio (individual experiments) (Y2R mutant F307^7.35A; [1]): 68.0 and 110.9
EC50 ratio (Y2R mutant F307^7.35A; [2]): 68 and 111
Ratio change (fold) (Y2R mutant F307^7.35A; [3]): 2 fold and 1.4 fold
Average EC50 ratio (Y2R mutant L183^4.60A): 10.3
EC50 ratio (individual experiments) (Y2R mutant L183^4.60A): 6.3 and 14.3
Average EC50 ratio (Y2R mutant F307^7.35E): 232.3
EC50 ratio (individual experiments) (Y2R mutant F307^7.35E): 75.3 and 389.3
Average EC50 ratio (Y2R mutant W281^6.48T; [1]): 2.6
EC50 ratio (individual experiments) (Y2R mutant W281^6.48T; [1]): 3.3 and 2.0
EC50 ratio (Y2R mutant W281^6.48T; [2]): 3 and 2
Ratio change (fold) (Y2R mutant W281^6.48T; [3]): 48 fold and 80 fold
